Results as given in patent US11760716B2, “Drug crystallization under microgravity conditions” (SPACEPHARMA R&D ISRAEL LTD., priority 2018, dated 2023).

Assays:
[1] = Highest concentration of vilanterol dissolvable in ethanol at 37° C.; type: physicochemical; details: ethanol as the solvent
Procedure: In order to obtain optimal results in space, adjustment of the Vilanterol crystallization protocol to fit the system of the invention, and vice versa, was required. The original main compartment volume ranged between 0.1 to 1 ml. To maximize the amount of drug used in the experiment, and still meet the safety limitation approved by NASA, the main compartment (2) size was increased to 2 ml. The vilanterol concentration was adjusted according to the maximum temperature in which the payload could be stored on the ISS (37° C.).

[2] = Crystal width from scanning electron microscope micrographs (FIG. 3); type: physicochemical
Procedure: Gradual cooling of the vilanterol ethanolic solution (25 mg/ml) in rubber container (4), placed in one storage compartment (3), was carried out by reducing the temperature from 37° C. to 4° C. by storing the container in a refrigerator inside the ISS until the return to Earth. The results obtained upon return to Earth show the vilanterol space grown crystals in rubber container (4).
Vilanterol (250 mg) was dissolved in 10 ml ethanol to result in a vilanterol solution having a final concentration of 25 mg/ml. Main compartment (2) of cassette (1) (FIG. 1A) was filled with 2 ml of the prepared vilanterol/ethanol solution. In addition, one rubber container (4), placed in one storage compartment (3), was filled with 1 ml heptane (anti-solvent). Cassette (1) was kept at 37° C.
After 10 days from launch into space, one plunger was released thereby activating one rubber container (4) in one storage compartment (3), allowing 1 ml of heptane to flow into main compartment (2), which, as mentioned above, comprises the vilanterol/ethanol solution. […]
The experiments performed in space on board of the ISS yielded crystals that were substantially larger and of higher crystalline order compared to their Earth-grown equivalents. […] The quantity of material manufactured in orbit was sufficient for complete characterization study and further processing tests. […]

- highest concentration of vilanterol that could be dissolved [1]: 2.5 % w/v
- width of crystals ([2]; crystals crystalized in space under microgravity (FIG. 3, right hand panel)): 10-20 microns
- width of crystals ([2]; crystals crystalized on Earth, 1 g (FIG. 3, left hand panel)): a few
Structure (SMILES): OCc1cc([C@@H](O)CNCCCCCCOCCOCc2c(Cl)cccc2Cl)ccc1O [vilanterol, 4-{(1R)-2-[(6-{2-[(2,6-dichlorobenzyl)oxy]ethoxy}hexyl)amino]-1-hydroxyethyl}-2-(hydroxymethyl)phenol]
